The record followed here is patent publication US9266883B2, “Ring-fused bicyclic pyridyl derivatives as FGFR4 inhibitors” (Novartis AG, priority 2013, dated 2016).

Counter-ions that a name gives are not always drawn. Like-named read-outs stand apart in the source and are kept apart here. A value given as a limit tells only on which side of the number the result lay.

One assay addresses Tel-FGFR4 (Homo sapiens (Human), UniProt P22455). Nature of the assay: In vitro cellular kinase assay for FGFR4 (BaF3-Tel-FGFR4 cells, MSD capture ELISA of tyrosine phosphorylation). Format: cell-based. A general note: ELISA stands for enzyme-linked immunosorbent assay.
Assay [1] addresses FGFR4 (GST-FGFR4(388-802)) (Homo sapiens (Human), UniProt P22455). Nature of the assay: In-vitro biochemical kinase assay for FGFR4 (Caliper microfluidic mobility shift).
[2] abbreviates: Cellular BaF3 FGFR4 assay, read-out: Cellular IC50.
Setting [3] is: biochemical FGFR4 assay, read-out: Biochemical IC50.
Where [4] appears, read: BaF3-Tel-FGFR4 cells, 1 hour incubation, read-out: Cellular BaF3 FGFR4 IC50.
Where [5] appears, read: read-out: Biochemical FGFR4 IC50.

Tel-FGFR4, sequence (P22455 other isoform, or with tags, fused parts or gaps): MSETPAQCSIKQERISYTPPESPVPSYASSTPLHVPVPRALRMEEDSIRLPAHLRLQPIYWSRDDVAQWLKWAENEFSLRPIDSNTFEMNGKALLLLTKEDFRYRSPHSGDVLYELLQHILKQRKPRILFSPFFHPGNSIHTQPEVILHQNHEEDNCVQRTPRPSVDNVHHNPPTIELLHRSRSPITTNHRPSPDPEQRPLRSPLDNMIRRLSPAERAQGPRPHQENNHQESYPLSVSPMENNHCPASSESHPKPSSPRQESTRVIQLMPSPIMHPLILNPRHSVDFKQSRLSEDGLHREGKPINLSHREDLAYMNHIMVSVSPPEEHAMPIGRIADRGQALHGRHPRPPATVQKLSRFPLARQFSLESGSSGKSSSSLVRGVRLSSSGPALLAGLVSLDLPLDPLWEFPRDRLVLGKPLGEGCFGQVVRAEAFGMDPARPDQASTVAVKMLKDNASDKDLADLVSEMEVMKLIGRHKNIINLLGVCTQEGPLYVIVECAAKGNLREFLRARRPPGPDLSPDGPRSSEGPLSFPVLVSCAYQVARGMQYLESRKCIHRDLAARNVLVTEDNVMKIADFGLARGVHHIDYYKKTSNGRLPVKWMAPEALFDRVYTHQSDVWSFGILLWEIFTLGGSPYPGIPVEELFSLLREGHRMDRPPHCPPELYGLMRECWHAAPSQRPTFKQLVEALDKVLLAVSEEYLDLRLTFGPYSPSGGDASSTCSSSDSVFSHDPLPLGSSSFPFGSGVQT
FGFR4 (GST-FGFR4(388-802)), sequence (P22455 388-802): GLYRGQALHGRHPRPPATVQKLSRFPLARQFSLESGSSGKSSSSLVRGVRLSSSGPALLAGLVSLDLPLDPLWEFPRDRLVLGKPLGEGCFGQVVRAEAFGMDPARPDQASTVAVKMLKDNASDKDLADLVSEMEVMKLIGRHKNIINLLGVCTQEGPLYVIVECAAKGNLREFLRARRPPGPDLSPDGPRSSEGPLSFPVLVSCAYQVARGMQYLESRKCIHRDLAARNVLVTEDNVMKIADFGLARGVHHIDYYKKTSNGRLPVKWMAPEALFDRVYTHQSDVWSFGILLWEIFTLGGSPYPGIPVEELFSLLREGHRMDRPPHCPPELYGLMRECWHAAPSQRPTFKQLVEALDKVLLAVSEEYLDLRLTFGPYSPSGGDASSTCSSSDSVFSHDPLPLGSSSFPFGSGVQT

As for `COC[C@H](C)Oc1cc(NC(=O)N2CCCc3cc(CN4CCCC4=O)c(C=O)nc32)ncc1C#N` [(S)-N-(5-cyano-4-((1-methoxypropan-2-yl)oxy)pyridin-2-yl)-7-formyl-6-((2-oxopyrrolidin-1-yl)methyl)-3,4-dihydro-1,8-naphthyridine-1(2H)-carboxamide], the IC50 (usually the concentration that inhibits the measured activity by half) at Tel-FGFR4 (setting [2]) is 7.6 nM; in assay [1] (setting [3]) it was 4.6 nM.

For the compound `COCCNc1cc(NC(=O)N2CCCc3cc(CN4CCCC4=O)c(C=O)nc32)ncc1C#N` [N-(5-cyano-4-((2-methoxyethyl)amino)pyridin-2-yl)-7-formyl-6-((2-oxopyrrolidin-1-yl)methyl)-3,4-dihydro-1,8-naphthyridine-1(2H)-carboxamide], the IC50 was 3.6 nM at Tel-FGFR4 (setting [2]) and 1.1 nM in assay [1] (setting [3]).

On to `N#Cc1cnc(NC(=O)N2CCCc3cc(CO)c(C=O)nc32)cc1OC1CCOCC1` [Example 53, N-(5-cyano-4-((tetrahydro-2H-pyran-4-yl)oxy)pyridin-2-yl)-7-formyl-6-(hydroxymethyl)-3,4-dihydro-1,8-naphthyridine-1(2H)-carboxamide], for which the concentration for half-maximal inhibition (IC50) at Tel-FGFR4 (setting [4]) stood at 36 nM; in assay [1] (setting [5]) it was 2.9 nM.

For the compound `COC[C@H](C)Nc1cc(NC(=O)N2CCCc3cc(CN4CCOCC4=O)c(C=O)nc32)ncc1C#N` [(S)-N-(5-cyano-4-((1-methoxypropan-2-yl)amino)pyridin-2-yl)-7-formyl-6-((3-oxomorpholino)methyl)-3,4-dihydro-1,8-naphthyridine-1(2H)-carboxamide], the figures for the half-inhibitory concentration (IC50) (on Tel-FGFR4 (setting [2]); in assay [1] (setting [3])) were 5.7 nM and 2.5 nM, respectively.

As for `COCCNc1cc(NC(=O)N2CCCc3cc(CN4CC[C@@H](N(C)C)C4=O)c(C=O)nc32)ncc1C#N` [(R)-N-(5-cyano-4-((2-methoxyethyl)amino)pyridin-2-yl)-6-((3-(dimethylamino)-2-oxopyrrolidin-1-yl)methyl)-7-formyl-3,4-dihydro-1,8-naphthyridine-1(2H)-carboxamide], the IC50 stood at 3.9 nM at Tel-FGFR4 (setting [2]) and 1.6 nM in assay [1] (setting [3]).

`CCOc1cc(NC(=O)N2CCCc3cc(CN4CCN(C)CC4=O)c(C=O)nc32)ncc1C#N` [N-(5-cyano-4-ethoxypyridin-2-yl)-7-formyl-6-((4-methyl-2-oxopiperazin-1-yl)methyl)-3,4-dihydro-1,8-naphthyridine-1(2H)-carboxamide]: the IC50 was 6.9 nM at Tel-FGFR4 (setting [2]) and 1.3 nM in assay [1] (setting [3]).

`CC(C)Nc1cc(NC(=O)N2CCCc3cc(C(F)F)c(C=O)nc32)ncc1C#N` [N-(5-cyano-4-(isopropylamino)pyridin-2-yl)-6-(difluoromethyl)-7-formyl-3,4-dihydro-1,8-naphthyridine-1(2H)-carboxamide]: the IC50 on Tel-FGFR4 (setting [2]) was 20.3 nM; in assay [1] (setting [3]), 1.3 nM.

On to `COc1cc(NC(=O)N2CCCc3cc(CN4CCCC4=O)c(C=O)nc32)ncc1C(F)(F)F` [7-formyl-N-(4-methoxy-5-(trifluoromethyl)pyridin-2-yl)-6-((2-oxopyrrolidin-1-yl)methyl)-3,4-dihydro-1,8-naphthyridine-1(2H)-carboxamide], for which the IC50 turned out to be 138 nM on Tel-FGFR4 (setting [2]) and 46.5 nM in assay [1] (setting [3]).

Regarding `COC[C@H](C)Oc1nc(NC(=O)N2CCCc3cc(CO)c(C=O)nc32)ncc1Cl` [Example 58, (S)-N-(5-chloro-4-((1-methoxypropan-2-yl)oxy)pyrimidin-2-yl)-7-formyl-6-(hydroxymethyl)-3,4-dihydro-1,8-naphthyridine-1(2H)-carboxamide], the IC50 on Tel-FGFR4 (setting [4]) worked out at 898 nM; in assay [1] (setting [5]), 160 nM.

Take `CC(C)Oc1cc(NC(=O)N2CCCc3cc(CN4CCCC4)c(C=O)nc32)ncc1C#N` [N-(5-cyano-4-isopropoxypyridin-2-yl)-7-formyl-6-(pyrrolidin-1-ylmethyl)-3,4-dihydro-1,8-naphthyridine-1(2H)-carboxamide]: the IC50 was 854 nM on Tel-FGFR4 (setting [2]) and 26.4 nM in assay [1] (setting [3]).

For the compound `CCN(Cc1cc2c(nc1C=O)N(C(=O)Nc1cc(NCCOC)c(C#N)cn1)CCC2)C(=O)CN(C)C` [N-(5-cyano-4-((2-methoxyethyl)amino)pyridin-2-yl)-6-((2-(dimethylamino)-N-ethylacetamido)methyl)-7-formyl-3,4-dihydro-1,8-naphthyridine-1(2H)-carboxamide], the IC50 is 5.5 nM at Tel-FGFR4 (setting [2]) and 0.5 nM in assay [1] (setting [3]).

`CCN(Cc1cc2c(nc1C=O)N(C(=O)Nc1cc(NC(C)C)c(C#N)cn1)CCC2)C(=O)CN(C)C` [N-(5-cyano-4-(isopropylamino)pyridin-2-yl)-6-((2-(dimethylamino)-N-ethylacetamido)methyl)-7-formyl-3,4-dihydro-1,8-naphthyridine-1(2H)-carboxamide]: the IC50 on Tel-FGFR4 (setting [2]) amounted to 10.4 nM; in assay [1] (setting [3]) it was 0.8 nM.

On to `CN1CCN(Cc2cc3c(nc2C=O)N(C(=O)Nc2cc(NCCOS(=O)(=O)O)c(C#N)cn2)CCC3)C(=O)C1` [Example 236, 2-((5-cyano-2-(7-formyl-6-((4-methyl-2-oxopiperazin-1-yl)methyl)-1,2,3,4-tetrahydro-1,8-naphthyridine-1-carboxamido)pyridin-4-yl)amino)ethyl hydrogen sulfate], for which the IC50 is 1130 nM at Tel-FGFR4 (setting [4]); more than 3000 nM at Tel-FGFR4 (measured and considered as outlier values, not included in the table or list, read-out: IC50 in the cellular BaF3 FGFR4 assay, outlier values); 8.2 nM in assay [1] (setting [5]).

Turning to `CN1CCN(Cc2cc3c(nc2C=O)N(C(=O)Nc2cc(OCCF)c(C#N)cn2)CCC3)C(=O)C1` [N-(5-cyano-4-(2-fluoroethoxyl)pyridin-2-yl)-7-formyl-6-((4-methyl-2-oxopiperazin-1-yl)methyl)-3,4-dihydro-1,8-naphthyridine-1(2H)-carboxamide], the results for the 50% inhibitory concentration (IC50) (at Tel-FGFR4 (setting [2]); in assay [1] (setting [3])) were 7.1 nM and 2.4 nM, respectively.

Turning to `O=Cc1nc2c(cc1CO)CCCN2C(=O)Nc1cc(O[C@H]2CCOC2)ccn1` [Example 71, (S)-7-formyl-6-(hydroxymethyl)-N-(4-((tetrahydrofuran-3-yl)oxy)pyridin-2-yl)-3,4-dihydro-1,8-naphthyridine-1(2H)-carboxamide], the half-maximal inhibitory concentration (IC50) was determined as 1570 nM at Tel-FGFR4 (setting [4]) and 810 nM in assay [1] (setting [5]).

With `O=Cc1nc2c(cc1CO)CCCN2C(=O)Nc1cc(O[C@H]2CCOC2)c(Cl)cn1` [Example 72, (S)-N-(5-chloro-4-((tetrahydrofuran-3-yl)oxy)pyridin-2-yl)-7-formyl-6-(hydroxymethyl)-3,4-dihydro-1,8-naphthyridine-1(2H)-carboxamide], the IC50 at Tel-FGFR4 (setting [4]) is 57.5 nM; in assay [1] (setting [5]) it was 21 nM.

In the case of `CC(C)Oc1cc(NC(=O)N2CCCc3cc(CO)c(C=O)nc32)ncc1C#N` [N-(5-cyano-4-isopropoxypyridin-2-yl)-7-formyl-6-(hydroxymethyl)-3,4-dihydro-1,8-naphthyridine-1(2H)-carboxamide], the values for the IC50 (on Tel-FGFR4 (setting [2]); in assay [1] (setting [3])) were 9.1 nM and 2.8 nM, respectively.

Take `CC(C)Oc1cc(NC(=O)N2CCCc3cc(CN4CCOC4=O)c(C=O)nc32)ncc1C#N` [N-(5-cyano-4-isopropoxypyridin-2-yl)-7-formyl-6-((2-oxooxazolidin-3-yl)methyl)-3,4-dihydro-1,8-naphthyridine-1(2H)-carboxamide]: the IC50 worked out at 5.6 nM at Tel-FGFR4 (setting [2]) and 1.3 nM in assay [1] (setting [3]).

For `CNc1cc(NC(=O)N2CCCc3cc(CN(C)C(=O)CN(C)C)c(C=O)nc32)ncc1C#N` [N-(5-cyano-4-(methylamino)pyridin-2-yl)-6-((2-(dimethylamino)-N-methylacetamido)methyl)-7-formyl-3,4-dihydro-1,8-naphthyridine-1(2H)-carboxamide], the IC50 on Tel-FGFR4 (setting [2]) is 11.3 nM.
